Reference: patent US10646489B2, “Compositions and methods for increasing energy metabolism” (NuSirt Sciences, Inc., priority 2012, dated 2020)

How the values were obtained:
3T3-L1 adipocytes [1] = experiment: Fatty acid oxidation in 3T3-L1 adipocytes / adipocytes; type: cell-based; conditions: p<0.05
Excerpt: (§1) Data expressed as % change from control value.*p<0.05. The output of the pathways can be measured using one or more methods, disclosed herein and/or known in the art. […] Mitochondrial biogenesis can be measured using a mitochondrial probe by using fluorescence. AMPK activity can be determined by measuring AMPK phosphorylation via an ELISA assay or by Western blot. Sirt1 activity can be determined by measuring deacetylation of a substrate, which can be detected using a fluorophore. […] Treatment with 0.5 mM leucine corresponds to a circulating level of the same molarity achieved by administering about 1,125 mg of dietary leucine to a human subject. Treatment with 0.25 mM leucine corresponds to a circulating level of the same molarity achieved by administering about 300 mg of dietary leucine to a human subject.

[2] = Synergy on energy metabolism (fat oxidation, glucose utilization), cell type not stated; type: cell-based
Method: (§2) Vinopocetine, which is a PDE 1 inhibitor, was tested in combination with leucine, HMB, and resveratrol for its effects on energy metabolism.
(§3) Two PDE 3 inhibitors were studied, amrinone and cilostamide, in combination with leucine and HMB for their effects on energy metabolism.
(§4) Icariin is a naturally occurring flavonol with significant PDE 5 inhibitory activity.

[3] = Dose-response of the PDE inhibitor alone (concentration without effect); type: cell-based
Method: as §2, §3
Two PDE 4 inhibitors were studied, rolipram and YM796, in combination with leucine and HMB for their effects on energy metabolism.
as §4

3T3-L1 adipocytes [4] = experiment: Glucose utilization (extracellular acidification response to glucose injection) in 3T3-L1 adipocytes / adipocytes; type: cell-based
Method: (§5) Glucose utilization was measured as extracellular acidification response to glucose injection. *p=0.05. […] Treatment with 0.5 mM leucine corresponds to a circulating level of the same molarity achieved by administering about 1,125 mg of dietary leucine to a human subject. Treatment with 0.25 mM leucine corresponds to a circulating level of the same molarity achieved by administering about 300 mg of dietary leucine to a human subject.

C2C12 myotubes [5] = experiment: Fatty acid oxidation (O2 consumption response to palmitate injection) in C2C12 myotubes / muscle cells; type: cell-based; conditions: for increase in myotube fat oxidation, with HMB: PDE 5 inhibitor 1 nM with HMB (5 μM); for increase in myotube fat oxidation, with leucine: PDE 5 inhibitor 1 nM with leucine (0.5 mM); for increase in myotube fat oxidation, with resveratrol: PDE 5 inhibitor 1 nM with resveratrol (200 nM)
Method: as §1, with “Fatty acid oxidation was measured as O2 consumption response to palmitate injection and is expressed as % change from pre-injection baseline. […] Data” for “Data”, “value. *p=0.013; **p=0.015.” for “value.*p<0.05.”

C2C12 myotubes [6] = experiment: Mitochondrial biogenesis measured as mitochondrial mass in C2C12 myotubes; type: cell-based
Method: as §1, with “The” for “Data expressed as % change from control value.*p<0.05. The”

[7] = 25 mg/kg diet; ~4 mg/kg body weight; previous published studies; cited from earlier work
C2C12 myotubes [8] = experiment: Nitric oxide production in C2C12 myotubes; type: cell-based; conditions: HMB or resveratrol, each, p<0.0001
Method: Treatment with 0.5 mM leucine corresponds to a circulating level of the same molarity achieved by administering about 1,125 mg of dietary leucine to a human subject. Treatment with 0.25 mM leucine corresponds to a circulating level of the same molarity achieved by administering about 300 mg of dietary leucine to a human subject.

[9] = Substitution of leucine by other branched chain amino acids in the synergy with a PDE5 inhibitor
Excerpt: Branched chain amino acids that can be combined with a PDE-5 inhibitor have aliphatic side chains with a branch carbon atom that is bound to two or more other atoms. The other atoms may be carbon atoms. Examples of branched chain amino acids include leucine, isoleucine, and valine. Branched chain amino acids may also include other compounds, such as 4-hydroxyisoleucine. In some embodiments, the compositions are substantially free of one or more, or all of non-branched chain amino acids. In some embodiments, the compositions are substantially free of one or more, or all of non-branched chain amino acids in free amino acid form. For example, the compositions can be substantially free of […], and/or tyrosine. The compositions can be substantially free of […], and/or tyrosine in free amino acid form. In some embodiments, the branched chain amino acid is leucine. In some embodiments, the compositions may be substantially free of isoleucine and/or valine, which may be in free form. The synergistic effects between leucine and a PDE5 inhibitor, as described herein, are not observed when leucine is substituted with isoleucine and valine. Not wishing to be bound by any particular theory, isoleucine, valine, and leucine compete with each other for transport and/or absorption, and inclusion of isoleucine and valine in a composition would reduce the efficacy of any leucine in the composition. […]

AMPK [10] = experiment: AMPK activation in adipocytes; type: cell-based; conditions: rolipram 0.1 nM combinations
Excerpt: (§6) The output of the pathways can be measured using one or more methods, disclosed herein and/or known in the art. For example, fatty acid oxidation can be determined by measuring oxygen consumption, or 3H-labeled palmitate oxidation. Mitochondrial biogenesis can be measured using a mitochondrial probe by using fluorescence. AMPK activity can be determined by measuring AMPK phosphorylation via an ELISA assay or by Western blot. Sirt1 activity can be determined by measuring deacetylation of a substrate, which can be detected using a fluorophore.
(§7) Two PDE 4 inhibitors were studied, rolipram and YM796, in combination with leucine and HMB for their effects on energy metabolism. Dose-response indicate concentrations of 0.1 nM or below of rolipram and YM796 exert no effect; accordingly, this was the concentration used in these experiments. […] However, no synergy was found for glucose utilization or AMPK activation.

C2C12 myotubes [11] = experiment: Glucose utilization (extracellular acidification response to glucose injection) in C2C12 myotubes / muscle cells; type: cell-based
Method: as §5, with “*p=0.04.” for “*p=0.05.”

AMPK [12] = experiment: AMPK activity / phosphorylation in muscle cells; type: cell-based
Excerpt: as §6, §7

diet-induced obese mouse = experiment: Post-prandial glucose, insulin and HOMAIR in the diet-induced obese mouse; type: in vivo; conditions: 14-day treatment
Method: The interactive effects of icariin, a flavanol with specific PDE5 inhibitory properties, on glycemia and insulin sensitivity were assessed in the diet-induced obese mouse, which can be used as a murine model of type 2 diabetes. Male C57/BL6 mice were placed on standard low-fat chow (control; 10% energy from fat) or high fat (60% energy from fat, Research Diets # D12492, Research Diets, Inc, New Brunswick, N.J.) at six weeks of age to induce insulin resistance. […], with 10 animals per group: Low fat diet (LFD) control; High fat diet (HFD) control; HFD+leucine (24 g/kg diet, a two-fold increase over control levels)1 HFD+leucine (24 g/kg diet)+icariin (25 mg/kg diet). […] Mice were fasted overnight (˜16 hours) prior to measurement of fasting blood glucose, insulin and glucose tolerance. Glucose tolerance was determined following measurement of fasting glucose via intraperitoneal administration of glucose (1.2 g/kg body weight) followed by blood glucose measurement at 15, 30, 60, 90 and 120 minutes. Post-prandial glucose was measured within one hour of cessation of eating. Insulin tolerance was measured via an insulin tolerance test (ITT). Food was removed 4-6 hours prior to ITT, and baseline blood glucose measured. The mice were then injected intraperitoneally with insulin (1.2 U/kg body weight) and blood glucose was measured 15, 30, 60, 90 and 120 minutes following insulin injection. The homeostasis model assessment of insulin resistance (HOMAIR) was used as a screening index of changes in insulin sensitivity. HOMAIR is calculated via standard formula from fasting plasma insulin and glucose as follows: HOMAIR=[Insulin (uU/mL)×glucose (mM)]/22.5. The plasma glucose and insulin concentrations were measured using the Glucose Assay Kit from Biovision (Milpitas, Calif.) and the Insulin kit from Millipore (Billerica, Mass.), respectively. CRP levels in plasma were determined by ELISA (CRP: Life Diagnostics, West Chester, Pa.).

[13] = vinpocetine 0.1 nM with either leucine (0.5 mM) or HMB (5 μM)

Compound: CC(C)(O)CC(=O)O [HMB, beta-hydroxymethylbutyrate]
- fatty acid oxidation, agent alone (3T3-L1 adipocytes [1]; 3T3-L1 adipocytes, leucine 0.5 mM or HMB 5 μM alone): 29%

Compound: CCOC(=O)C1=C[C@]2(CC)CCCN3CCc4c(n1c1ccccc41)[C@@H]32 [Vinpocetine]
- synergy with respect to fat oxidation [2, 13]: no synergy
- synergy with respect to glucose utilization [2, 13]: no synergy
- concentration that exerts no effect (dose-response) [3]: ≤ 0.1 nM
- increase in glucose utilization (3T3-L1 adipocytes [4]; adipocytes, vinpocetine 0.1 nM with low-dose resveratrol (200 nM), p=0.03): 70%

Compound: Nc1cc(-c2ccncc2)c[nH]c1=O [amrinone]
- synergy with either leucine or HMB (energy metabolism) ([2]; amrinone 10 nM): no significant synergy

Compound: CN(C(=O)CCCOc1ccc2[nH]c(=O)ccc2c1)C1CCCCC1 [cilostamide]
- increase in fat oxidation (C2C12 myotubes [5]; muscle cells, cilostamide 10 nM combined with either leucine (0.5 mM) or HMB (5 μM), p<0.05): 92%
- increase in fat oxidation (3T3-L1 adipocytes [1]; adipocytes, cilostamide 10 nM combined with either leucine (0.5 mM) or HMB (5 μM)): 58%

Compound: COc1ccc(-c2oc3c(CC=C(C)C)c(O[C@@H]4O[C@H](CO)[C@@H](O)[C@H](O)[C@H]4O)cc(O)c3c(=O)c2O[C@@H]2O[C@@H](C)[C@H](O)[C@@H](O)[C@H]2O)cc1 [icariin]
- synergy with both leucine and HMB to up regulate mitochondrial biogenesis (C2C12 myotubes [6]; icariin 1 nM, FIG. 13, p<0.001): significant synergy
- effect of the selected level [7]: no effect
- synergy with respect to glucose utilization ([2]; icariin 1 nM): did not exhibit significant synergy
- increase in myotube fat oxidation, with HMB (C2C12 myotubes [5]; C2C12 myotubes): 75%
- increase in myotube fat oxidation, with leucine (C2C12 myotubes [5]; C2C12 myotubes): 77%
- increase in myotube fat oxidation, with resveratrol (C2C12 myotubes [5]; C2C12 myotubes): 157%
- effect on nitric oxide production (C2C12 myotubes [8]; icariin with leucine): modest, significant effects
- concentration that exerts no effect (dose-response) [3]: below 1 nM

Compound: CC[C@H](C)[C@H](N)C(=O)O [isoleucine]
- synergistic effects with a PDE5 inhibitor when substituted for leucine [9]: not observed

Compound: Oc1ccc(/C=C/c2cc(O)cc(O)c2)cc1 [resveratrol, 3,5,4′-Trihydroxy-trans-stilbene]
- effect of resveratrol on the sildenafil interaction (mitochondrial biomass) (C2C12 myotubes [6]; FIG. 12): no significant effect
- interaction of resveratrol with icariin (mitochondrial biogenesis) (C2C12 myotubes [6]; FIG. 13): did not exhibit a significant interaction

Compound: COc1ccc(C2CNC(=O)C2)cc1OC1CCCC1 (stereo not drawn) [rolipram]
- synergy for AMPK activation (AMPK [10]): no synergy
- synergistic effect with leucine, HMB or resveratrol with respect to fat oxidation (C2C12 myotubes [5]; muscle cells, rolipram 0.1 nM): no synergistic effect
- synergy for glucose utilization (3T3-L1 adipocytes [4]; adipocytes, rolipram 0.1 nM combinations): no synergy
- synergistic effect with leucine, HMB or resveratrol with respect to glucose utilization (C2C12 myotubes [11]; muscle cells, rolipram 0.1 nM): no synergistic effect
- synergistic effect with leucine, HMB or resveratrol with respect to AMPK activity (AMPK [12]; muscle cells, rolipram 0.1 nM): no synergistic effect
- AMPK phosphorylation (AMPK [12]; rolipram alone, not augmented by leucine or HMB): activated

Compound: CCCc1nn(C)c2c(=O)[nH]c(-c3cc(S(=O)(=O)N4CCN(C)CC4)ccc3OCC)nc12 [sildenafil]
- increase in myotube fat oxidation, with HMB (C2C12 myotubes [5]; C2C12 myotubes): 203%
- increase in myotube fat oxidation, with leucine (C2C12 myotubes [5]; C2C12 myotubes): 232%
- increase in myotube fat oxidation, with resveratrol (C2C12 myotubes [5]; C2C12 myotubes): no interaction
- fatty acid oxidation, agent alone (C2C12 myotubes [5]; C2C12 myotubes, sildenafil 1 nM (change from baseline) or leucine 0.5 mM alone): about 50%
- increase in nitric oxide production (C2C12 myotubes [8]; sildenafil (1 nM) with leucine): 15-30%
- concentration that exerts no effect (dose-response) [3]: below 1 nM
- synergy of HMB or resveratrol with sildenafil on glucose utilization (3T3-L1 adipocytes [4]; 3T3-L1 adipocytes): neither HMB nor resveratrol exerted any significant synergy
- augmentation of myotube glucose utilization, with resveratrol (C2C12 myotubes [11]; C2C12 myotubes, sildenafil 1 nM with resveratrol 200 nM, p=0.04): 53%

Compound: CC(C)[C@H](N)C(=O)O [valine]
- synergistic effects with a PDE5 inhibitor when substituted for leucine [9]: not observed

Compound: insulin
- decrease in HOMAIR vs. untreated HFD mice (diet-induced obese mouse): ~40%
- decrease in circulating (post-prandial) insulin vs. untreated HFD mice (diet-induced obese mouse): ~30%
